Source: patent US12441704B2, “Compounds active towards nuclear receptors” (NUEVOLUTION A/S, priority 2019, dated 2025)
Where two headings read alike, the source gives them in different places.

Legend:
[1] = tested on: IL-17A secretion in activated PBMCs; assay: IL-17A secretion in activated PBMCs; type: cell-based, human; settings: PBMC; for IC50: Homo sapiens, 48 h, human PBMCs stimulated with CD3/CD28 Dynabeads for 48 h, absolute IC50; for inhibition at 10 µM: human PBMCs stimulated with CD3/CD28 Dynabeads
Method: Heparin-treated whole blood from healthy human volunteers was supplied from Hospital de Sant Pau (Barcelona) under the approval of the local ethical review board for human studies (Hospital de Sant Pau, Barcelona, Spain). Human peripheral blood mononuclear cells (PBMCs) were isolated from healthy human volunteers by density gradient centrifugation using the Ficoll-Paque (GE Healthcare). […] Cells were seeded in 384-well plate (DiscoverX), at 40,000 cells per well and cultured 2 h at 37° C. and 5% CO2.
Dose-response curves with compounds were prepared using a 5-fold serial dilution (10 concentrations) in 100% DMSO and further diluted 100-fold in culture medium. Compound solutions (5 μL) were added to the plate containing cells (final DMSO concentration of 0.1%) and incubated for 30 min. Then, cells were stimulated with CD3/CD28 Dynabeads (ThermoFisher, at a bead-to-cell ratio of 1:1) for 48 h at 37° C. and 5% CO2.
IL-17A levels in supernatant were determined by immunoassay using hIL17A QBeads (Intellicyt) and by fluorescence analysis in iQue flow cytometer following the manufacturer's instructions. Inhibition of IL-17A secretion was calculated using the following formula: inhibition=100*[1−[(x−mean basal condition)/(mean top condition−mean basal condition)]]. Activated DMSO-treated cells were used as top condition and activated GNE09461 (10 μM)-treated cells as basal condition.

[2] = biological target: T1, RORγ ligand-binding domain fused to Gal4 (Homo sapiens, UniProt P51449); assay: RORγ Reporter Assay (Gal4); type: cell-based
T1 construct: Gal4 (galactose-responsive transcription factor); expressed in transfected cells; host or cells: HEK293
T1 sequence (P51449 269-508 limits assumed): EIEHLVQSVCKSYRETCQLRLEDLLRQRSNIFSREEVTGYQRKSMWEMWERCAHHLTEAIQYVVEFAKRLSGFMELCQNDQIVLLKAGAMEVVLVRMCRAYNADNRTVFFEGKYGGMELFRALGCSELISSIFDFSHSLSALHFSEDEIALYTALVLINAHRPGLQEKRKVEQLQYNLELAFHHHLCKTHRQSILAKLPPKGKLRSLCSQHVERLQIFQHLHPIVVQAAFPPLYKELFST
In short: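 Percent inhibition was derived from luciferase RLU versus vehicle mean after 24 h compound incubation (37 °C, 0.1% DMSO). The cells were HEK293, transiently co-expressing a Gal4–RORγ ligand-binding-domain fusion plus a UAS-driven luciferase gene.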

[3] = HEK293 cells co-transfected with RORγ LBD-Gal4 and luciferase reporter, 24 h incubation, absolute EC50, read-out: EC50

Row | Structure (SMILES) | IC50 [1] [nM] | EC50 [2, 3] [nM] | inhibition at 10 µM [1] [%] | EC50 ([2]; compounds of the present disclosure, value from Table 2 herein, read-out: Gal4 assay EC50) [nM]
1 | NC(=O)CN1CC[C@@H](CNc2ncnc(N(Cc3ccc(C(F)(F)F)cn3)C3CC3)c2F)[C@H](O)C1 (racemic) [Example A7-14, rac-2-((3R,4R)-4-(((6-(cyclopropyl((5-(trifluoromethyl)pyridin-2-yl)methyl)amino)-5-fluoropyrimidin-4-yl)amino)methyl)-3-hydroxypiperidin-1-yl)acetamide] | 28 | 15 |  | 
2 | CCN(Cc1ccc(C(F)(F)F)cc1)c1ncnc(NC[C@H]2CCN(CC(N)=O)C[C@@H]2O)c1F (racemic) [Example A7-21, rac-2-((3R,4R)-4-(((6-(ethyl(4-(trifluoromethyl)benzyl)amino)-5-fluoropyrimidin-4-yl)amino)methyl)-3-hydroxypiperidin-1-yl)acetamide] | 80 | 12 |  | 
3 | NC(=O)CN1CC[C@@H](CNc2ncnc(N(Cc3ccc(C(F)(F)F)nc3)C3CC3)c2F)[C@H](O)C1 (racemic) [Example A7-28, rac-2-((3R,4R)-4-(((6-(cyclopropyl((6-(trifluoromethyl)pyridin-3-yl)methyl)amino)-5-fluoropyrimidin-4-yl)amino)methyl)-3-hydroxypiperidin-1-yl)acetamide] | 120 | 20.5 |  | 
4 | NC(=O)CN1CC[C@@H](CNc2ncnc(N(Cc3ccc(C(F)(F)F)cc3)[C@H]3C[C@H](F)C3)c2F)[C@H](O)C1 (racemic) [Example A7-31, rac-2-((3R,4R)-4-(((5-fluoro-6-(((1r,3S)-3-fluorocyclobutyl)(4-(trifluoromethyl)benzyl)amino)pyrimidin-4-yl)amino)methyl)-3-hydroxypiperidin-1-yl)acetamide] | 180 | 29 |  | 
5 | NC(=O)CN1CC[C@@H](CNc2ncnc(N(Cc3ccc(C(F)(F)F)cc3)[C@H]3C[C@@H](F)C3)c2F)[C@H](O)C1 (racemic) [Example A7-32, rac-2-((3R,4R)-4-(((5-fluoro-6-(((1s,3R)-3-fluorocyclobutyl)(4-(trifluoromethyl)benzyl)amino)pyrimidin-4-yl)amino)methyl)-3-hydroxypiperidin-1-yl)acetamide] | 220 | 34 |  | 
6 | CC(F)(F)c1ccc(CN(c2ncnc(NC[C@@H]3CCN(CC(N)=O)C[C@H]3O)c2F)C2CC2)cc1 (racemic) [Example A7-40, rac-2-((3R,4R)-4-(((6-(cyclopropyl(4-(1,1-difluoroethyl)benzyl)amino)-5-fluoropyrimidin-4-yl)amino)methyl)-3-hydroxypiperidin-1-yl)acetamide] | 7.7 | 5.5 |  | 
7 | NC(=O)CN1CC[C@@H](CNc2ncnc(N(Cc3ccc(OC(F)F)cc3F)C3CC3)c2F)[C@H](O)C1 (racemic) [Example A7-42, rac-2-((3R,4R)-4-(((6-(cyclopropyl(4-(difluoromethoxy)-2-fluorobenzyl)amino)-5-fluoropyrimidin-4-yl)amino)methyl)-3-hydroxypiperidin-1-yl)acetamide] | 200 | 18 |  | 
8 | NC(=O)CN1CC[C@@H](CNc2ncnc(N(Cc3ccc(OC(F)F)cc3)C3CC3)c2F)[C@H](O)C1 (racemic) [Example A7-43, rac-2-((3R,4R)-4-(((6-(cyclopropyl(4-(difluoromethoxy)benzyl)amino)-5-fluoropyrimidin-4-yl)amino)methyl)-3-hydroxypiperidin-1-yl)acetamide] | 35 | 11 |  | 
9 | NC(=O)CN1CC[C@@H](CNc2ncnc(N(Cc3cccc(OC(F)(F)F)c3)C3CC3)c2F)[C@H](O)C1 (racemic) [Example A7-56, rac-2-((3R,4R)-4-(((6-(cyclopropyl(3-(trifluoromethoxy)benzyl)amino)-5-fluoropyrimidin-4-yl)amino)methyl)-3-hydroxypiperidin-1-yl)acetamide] |  | 5.3 | 66 | < 100
10 | CCN(Cc1ccc(C(F)(F)F)cc1)c1ncnc(NC[C@@H]2CCN(C(C(N)=O)c3ccncc3)C[C@H]2O)c1F (mixture of isomers) [Example A7-62, rac-2-((3R,4R)-4-(((6-(Ethyl(4-(trifluoromethyl)benzyl)amino)-5-fluoropyrimidin-4-yl)amino)methyl)-3-hydroxypiperidin-1-yl)-2-(pyridin-4-yl)acetamide] | 7.2 | 1.8 |  | 
11 | NC(=O)C(c1ccncc1)N1CC[C@@H](CNc2ncnc(N(Cc3ccc(C(F)(F)F)cc3)C3CC3)c2F)[C@H](O)C1 (mixture of isomers) [Example A7-63, rac-2-((3R,4R)-4-(((6-(cyclopropyl(4-(trifluoromethyl)benzyl)amino)-5-fluoropyrimidin-4-yl)amino)methyl)-3-hydroxypiperidin-1-yl)-2-(pyridin-4-yl)acetamide] | 2.3 | 3.4 |  | 
12 | NC(=O)C(CO)N1CC[C@@H](CNc2ncnc(N(Cc3ccc(C(F)(F)F)cc3)C3CC3)c2F)[C@H](O)C1 (mixture of isomers) [Example A7-65, rac-2-((3R,4R)-4-(((6-(cyclopropyl(4-(trifluoromethyl)benzyl)amino)-5-fluoropyrimidin-4-yl)amino)methyl)-3-hydroxypiperidin-1-yl)-3-hydroxypropanamide] | 12 | 5.8 |  | 
13 | Cn1cc(-c2ccc(CN(c3ncnc(NC[C@@H]4CCN(CC(N)=O)C[C@H]4O)c3F)C3CC3)cc2)cn1 (racemic) [Example A7-74, rac-2-((3R,4R)-4-(((6-(cyclopropyl(4-(1-methyl-1H-pyrazol-4-yl)benzyl)amino)-5-fluoropyrimidin-4-yl)amino)methyl)-3-hydroxypiperidin-1-yl)acetamide] | 23 | 12 |  | 
14 | Cn1cc(-c2ccc(CN(c3ncnc(NC[C@@H]4CCN(CC(N)=O)C[C@H]4O)c3F)C3CC3)c(F)c2)cn1 (racemic) [Example A7-75, rac-2-((3R,4R)-4-(((6-(cyclopropyl(2-fluoro-4-(1-methyl-1H-pyrazol-4-yl)benzyl)amino)-5-fluoropyrimidin-4-yl)amino)methyl)-3-hydroxypiperidin-1-yl)acetamide] | 18 | 13 |  | 
15 | NC(=O)CN1CC[C@@H](CNc2ncnc(N(Cc3ccc(-n4cccn4)cc3F)C3CC3)c2F)[C@H](O)C1 (racemic) [Example A7-76, rac-2-((3R,4R)-4-(((6-(cyclopropyl(2-fluoro-4-(1H-pyrazol-1-yl)benzyl)amino)-5-fluoropyrimidin-4-yl)amino)methyl)-3-hydroxypiperidin-1-yl)acetamide] | 92 | 6.6 |  | 
16 | CCN(Cc1ccc(-n2cccn2)cc1)c1ncnc(NC[C@@H]2CCN(CC(N)=O)C[C@H]2O)c1F (racemic) [Example A7-77, rac-2-((3R,4R)-4-(((6-((4-(1H-Pyrazol-1-yl)benzyl)(ethyl)amino)-5-fluoropyrimidin-4-yl)amino)methyl)-3-hydroxypiperidin-1-yl)acetamide] | 440 | 73 |  | 
17 | CCN(Cc1ccc(C#N)cc1)c1ncnc(NC[C@@H]2CCN(CC(N)=O)C[C@H]2O)c1F (racemic) [Example A7-78, rac-2-((3R,4R)-4-(((6-((4-cyanobenzyl)(ethyl)amino)-5-fluoropyrimidin-4-yl)amino)methyl)-3-hydroxypiperidin-1-yl)acetamide] |  | 65 | 70 | 
18 | CC(C)(C(N)=O)N1CC[C@@H](CNc2ncnc(N(Cc3ccc(C(F)(F)F)cc3)C3CC3)c2F)[C@H](O)C1 (relative stereo) [Example A7-55, rel-2-((3R,4R)-4-(((6-(cyclopropyl(4-(trifluoromethyl)benzyl)amino)-5-fluoropyrimidin-4-yl)amino)methyl)-3-hydroxypiperidin-1-yl)-2-methylpropanamide] | 4.9 | 4.7 |  | 
19 | CCN(Cc1ccc(C(F)(F)F)cc1)c1ncnc(NC[C@@H]2CCN([C@H](CO)C(N)=O)C[C@H]2O)c1F (relative stereo) [Example A7-66-1, rel-(R)-2-((3R,4R)-4-(((6-(ethyl(4-(trifluoromethyl)benzyl)amino)-5-fluoropyrimidin-4-yl)amino)methyl)-3-hydroxypiperidin-1-yl)-3-hydroxypropanamide OR rel-(R)-2-((3S,4S)-4-(((6-(ethyl(4-(trifluoromethyl)benzyl)amino)-5-fluoropyrimidin-4-yl)amino)methyl)-3-hydroxypiperidin-1-yl)-3-hydroxypropanamide] | 18 | 26 |  | 
